Several values for one entry are separate records, joined by “and”; a condition that tells them apart may be missing. Equal values may be shown once.
Tests used:
[1] = tested on: CFTR G542X; test: Functional CFTR channel activity, TECC-24 electrophysiology, 16HBE cells (CFTR G542X readthrough); assay type: cell-based, human
Method: (§1) 16HBE human bronchial epithelial cells were seeded onto Transwell 24-well filter inserts coated with human collagen type IV. Cells were seeded 7 days prior to functional testing at a density of 1.7×10^5 cells onto the “apical” chamber filter of the Transwell insert. Cells were grown as submerged cultures (200 μL apical/700 μL basolateral) in Minimal Essential Medium (MEM) containing 10% qualified Fetal Bovine Serum and 1% Penicillin/Streptomycin and incubated at 37° C. and 5% CO2. Growth media on cells was replenished with fresh media every 1-3 days prior to test agent treatment day. After 7 days in culture, the CFTR-mediated chloride (Cl^−) equivalent current (Ieq) of the 16HBE cells was recorded, which may typically form electrically tight epithelia with a transepithelial resistance (Rt) of 2000-6000 Ω·cm2 as described below. Forty-eight hours prior to electrophysiological measurements, fresh growth media containing the test agents was applied to both chambers separating filter bound epithelial monolayer.
(§2) On the day of electrophysiology studies, electrodes of a “Multi-(24-channel) transepithelial current clamp amplifier” (MTECC-24 (TECC-24 for short), EP Devices, Belgium) were soaked in an assay buffer (see below for composition) for at least 2 hours using 24-well Transwell plates without inserts. Cell culture media was replaced in the Transwell assay plates with assay buffer (see below) and the plates were mounted onto a custom-built automated robotic assay platform (Yamaha RCX240S controller) with heated plate holders set at 37° C. for 60 min. After equilibration, transepithelial potential difference (PD) and resistance (Rt) was monitoredat ˜5 min intervals using the TECC-24 transepithelial current clamp. Electrode potential differences were monitored for each pair of Ag/AgCl voltage electrodes by taking voltage measurements from a control (“blank”) plate with matching buffer solutions and 16HBE cells that were not treated with any test agent. PD values for each electrode pair were subtracted from the blank plate from that of the test plates at each time point. Ieq was calculated from the corrected PD values and Rt using Ohm's law. Ieq values were slope corrected to account for measurement drift over time using the equation: Slope corrected value=calculated Ieq−((time x slope)+y-intercept) with the slope and y-intercept calculated from the data points captured during the initial baseline period and following addition of the CFTR inhibitor.
(§3) The equivalent current (Ieq) traces associated with CFTR channel activation were plotted as baseline subtracted mean±standard deviation from 3-4 separate wells on the 24-well Transwell (n=3-4). There are 4 recording periods, with the first set of data points recorded baseline Ieq currents prior to sequential activation of available CFTR channels with forskolin (10 μM) and then in combination with potentiator VX-770/ivacaftor (1 μM). Recorded the last set of data points in the presence of CFTR inhibitor CFTRinh-172 (20 μM) to confirm that currents are mediated via activation of CFTR channels. The test agents and control/reference compounds were pre-diluted to 10-fold concentrations in assay buffer and added manually using a multi-channel pipette to both the basolateral and apical side of the membrane (test plates only). Employed CFTR-mediated changes in Ieq, (i.e. forskolin/VX-770 activated currents) to measure functional CFTR surface expression or treatment-related functional rescue of mutant CFTR.
(§4) The magnitude of test agent mediated enhancement of functional CFTR currents was calculated by comparing forskolin/VX-770 stimulated Ieq relative to baseline/CFTRinh-172 Ieq following 48 hour pretreatment with test agent(s) and normalizing to the forskolin/VX-770 stimulated Ieq determined following 48 hour pretreatment with a maximally effective concentration a reference control aminoglycoside agent (typically 110 μM G418). […]

[2] = tested on: CFTR R1162X; test: Functional CFTR channel activity, TECC-24 electrophysiology, 16HBE cells (CFTR R1162X readthrough); assay type: cell-based, human
Method: as §1, §2, §3, §4

[3] = tested on: recombinant human CFTR carrying the premature stop codon (PTC) mutation G542X; test: CFTR-PTC mutant translation readthrough, Nanoluc tagged CFTR luminescence (G542X cell line); assay type: cell-based; conditions: 10 μM G418 alone; 48 hours; cell line (G542X or R1162X) not specified
Method in brief: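 16HBE cells stably expressing Nanoluc-tagged human CFTR with G542X or R1162X, in medium with 3 μM VX-809, treated 48 h at 37 °C with compound (10-point, 2-fold, top 50 μM final) alone or with 10 μM G418. Live-cell Nanoluc luminescence normalised to a maximally effective G418 (125-250 μM).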

[4] = RTM conc. —, eRF3 modulator (CC-90009) 1 uM, ELX-02 100 uM
[5] = no RTM, eRF3 modulator (CC-90009) 1 uM, G418 10 uM
[6] = no RTM, eRF3 modulator (CC-90009) 10 uM, G418 10 uM
[7] = no RTM, eRF3 modulator (CC-90009) 1 uM, Paramomycin 2000 uM

## C[C@H](N)[C@H]1O[C@@H](OC2C(O)C(N)CC(N)C2OC2OC([C@@H](C)O)C(O)C(O)C2N)C(O)C1O (stereo partly drawn) [ELX-02, reference compound]
[1]; [4]
  Currents (% of 110 μM G418 (Max effect)): 191 % of 110 μM G418 (Max effect)
[2]; [4]
  Currents (% of 110 μM G418 (Max effect)): 198 % of 110 μM G418 (Max effect)

## CN[C@@H]1[C@@H](O)[C@@H](O[C@@H]2[C@@H](O)[C@H](O[C@H]3O[C@H]([C@@H](C)O)[C@@H](O)[C@H](O)[C@H]3N)[C@@H](N)C[C@H]2N)OC[C@]1(C)O [Example G418, G418, reference compound]
[3]
  response (Nanoluc luminescence) relative to a maximally effective concentration of G418: approximately 10 % of the response observed with a maximally effective concentration of G418 (typically 125-250 μM)
[1]; [5]
  Currents (% of 110 μM G418 (Max effect)): 130 % of 110 μM G418 (Max effect)
[1]; [6]
  Currents (% of 110 μM G418 (Max effect)): 102 % of 110 μM G418 (Max effect)
[2]; [5]
  Currents (% of 110 μM G418 (Max effect)): 110 % of 110 μM G418 (Max effect) and 95 % of 110 μM G418 (Max effect)
[2]; [6]
  Currents (% of 110 μM G418 (Max effect)): 130 % of 110 μM G418 (Max effect) and 139 % of 110 μM G418 (Max effect)

## NC[C@@H]1O[C@H](O[C@H]2[C@@H](O)[C@H](O[C@@H]3[C@@H](O)[C@H](N)C[C@H](N)[C@H]3O[C@H]3O[C@H](CO)[C@@H](O)[C@H](O)[C@H]3N)O[C@@H]2CO)[C@H](N)[C@@H](O)[C@@H]1O [Paramomycin, paramomycin, reference compound]
[1]; [7]
  Currents (% of 110 μM G418 (Max effect)): 65 % of 110 μM G418 (Max effect)
[2]; [7]
  Currents (% of 110 μM G418 (Max effect)): 55 % of 110 μM G418 (Max effect)

Source: patent US20250228865A1, “COMPOUNDS FOR ENHANCING READ THROUGH OF GENES CONTAINING PREMATURE TERMINATION CODONS AND METHODS FOR MAKING AND USING THE SAME” (Sanofi US Services Inc., priority 2022, published 2025)
